# Values quoted from earlier work, collected in patent EP0266006A2, “Novel hypotensive diuretic peptides” (SHIONOGI SEIYAKU KABUSHIKI KAISHA trading under the name of …, priority 1986, dated 1988).
# Where no end group is shown, it is not given here.
# Conditions: said to be so, unlike α type or γ type
substance,measurement,value
"β-hANP: antiparallel dimer of α-hANP (SLRRSSCFGGRMDRIGAQSGLGCNSFRY; ends and bridges not checked; also: antiparallel dimer of α-hANP; UniProt P01160 124-151, looked up)",diuretic action (duration),persistent
